One series relates to Ambystoma mexicanum. Description: Toxicity in axolotl at <=10 uM by embryo tail regeneration assay. Particulars: in vivo. The class given is organism-based.
The next series concerns Salmonella enterica. Description: Antimicrobial activity against Salmonella enterica ATCC 10708 incubated for 16 to 48 hrs. Format: functional.
The subject of the next series is Micrococcus luteus. Description: Antimicrobial activity against Micrococcus luteus NRRL B-287 incubated for 16 to 48 hrs. The class given is functional.
A further series has as its system Bacillus subtilis. Description: Antimicrobial activity against Bacillus subtilis ATCC 6633 incubated for 16 to 48 hrs. The class given is functional.
Another series deals with Escherichia coli. The experiment in a line: Antimicrobial activity against Escherichia coli NRRL B-3708 incubated for 16 to 48 hrs. Format: functional.
The subject of another series is PC-3. Description: Cytotoxicity in human PC3 cells assessed as reduction in cell viability incubated for 48 hrs. The settings on record: PC-3, 48 h. The class given is functional, cell-based.
The test system of another series is A549. The experiment in a line: Cytotoxicity in human A549 cells assessed as reduction in cell viability incubated for 48 hrs. The class given is functional, cell-based. Particulars: A549, 48 h.
The test system of another series is Saccharomyces cerevisiae. Description: Antimicrobial activity against Saccharomyces cerevisiae ATCC 204508 incubated for 16 to 48 hrs. Format: functional.
The next series concerns Staphylococcus aureus. The experiment in a line: Antimicrobial activity against Staphylococcus aureus ATCC 6538 incubated for 16 to 48 hrs. The class given is functional.
A further series has as its system Mycolicibacterium aurum. The experiment in a line: Antimicrobial activity against Mycobacterium aurum ATCC 23366 incubated for 16 to 48 hrs. The class given is functional.

By MIC is commonly meant the lowest concentration found to suppress growth. Read a high MIC as a need for much substance. The term IC50 denotes the point on the concentration scale where inhibition reaches its midpoint.

≈ marks a conversion by molar mass, not a printed value.

As for `O=C(O)c1cccc2nc3c4c(ccc3nc12)[C@H]1c2nc3c(O)cccc3nc2C[C@@H]4[C@H]1O`, the Activity result in the series on Ambystoma mexicanum is recorded as “Non-Toxic”. The MIC in the series with Salmonella enterica, with Micrococcus luteus, in the series with Bacillus subtilis, against Escherichia coli, against Saccharomyces cerevisiae and in the series on Staphylococcus aureus was more than 120 µM throughout. This compound also showed an MIC against Mycolicibacterium aurum of more than 120 µM. Besides, the IC50 in the series on PC-3 and with A549 was more than 50 µM in each case.

Regarding `O=C(O)C1(O)O[C@@H]2[C@@H](Cc3nc4c(O)cccc4nc3[C@H]2O)[C@H]1c1c[nH]c2ccccc12` (stereo not given in full), in the series on Ambystoma mexicanum, the Activity result is reported as “Non-Toxic”. Besides, the minimal inhibitory concentration (MIC) in the series on Salmonella enterica, in the series on Micrococcus luteus, with Bacillus subtilis, in the series on Escherichia coli, against Saccharomyces cerevisiae and against Staphylococcus aureus was more than 120 µM throughout. In addition, the minimal inhibitory concentration (MIC) in the series on Mycolicibacterium aurum is more than 120 µM. Also, the IC50 in the series with PC-3 and in the series on A549 was more than 50 µM throughout.

On to `O=C(O)c1cc2c(c3nc4cccc(O)c4nc13)[C@@H]1Cc3nc4cccc(O)c4nc3[C@@](O)(C1)O2`, for which, in the series with Ambystoma mexicanum, the Activity entry was “Non-Toxic”. The minimum inhibitory concentration (MIC) against Salmonella enterica, in the series with Micrococcus luteus, against Bacillus subtilis, against Escherichia coli, with Saccharomyces cerevisiae and against Staphylococcus aureus was more than 120 µM throughout. In the series on Mycolicibacterium aurum, this compound had an MIC of more than 120 µM. Besides, the half-maximal inhibitory concentration (IC50) in the series with PC-3 and in the series on A549 was more than 50 µM throughout.

Consider `O=C(O)C1(O)O[C@@H]2[C@@H](Cc3nc4c(O)cccc4nc3[C@@H]2O)[C@H]1c1ccc(O)cc1` (stereo not given in full), for which the Activity result in the series with Ambystoma mexicanum is “Non-Toxic”. Further, the MIC against Salmonella enterica, in the series with Micrococcus luteus, against Bacillus subtilis, against Escherichia coli, against Saccharomyces cerevisiae and with Staphylococcus aureus was more than 120 µM each time. In addition, the MIC in the series on Mycolicibacterium aurum is more than 120 µM. Besides, the IC50 in the series with PC-3 and in the series with A549 was more than 50 µM throughout.

As for `O=C(O)C1(O)O[C@@H]2[C@@H](Cc3nc4c(O)cccc4nc3[C@@H]2O)[C@H]1c1c[nH]c2ccccc12` (stereo not given in full), the Activity entry in the series on Ambystoma mexicanum was “Non-Toxic”. Further, the MIC with Salmonella enterica, against Micrococcus luteus, in the series with Bacillus subtilis, against Escherichia coli, with Saccharomyces cerevisiae and against Staphylococcus aureus was more than 120 µM throughout. Also, the MIC in the series on Mycolicibacterium aurum was more than 120 µM. Also, the IC50 with PC-3 and with A549 was more than 50 µM each time.

With `NC(=O)c1cccc2nc3c4c(ccc3nc12)[C@H]1c2nc3c(O)cccc3nc2C[C@@H]4[C@@H]1O`, the Activity result in the series with Ambystoma mexicanum is listed as “Non-Toxic”. The MIC against Salmonella enterica was more than 120 µM; against Micrococcus luteus it was 7.5 µM (≈ 3.27 µg/mL); in the series on Bacillus subtilis it was 7.5 µM (≈ 3.27 µg/mL); in the series with Escherichia coli, more than 120 µM; with Saccharomyces cerevisiae it was more than 120 µM; in the series with Staphylococcus aureus it was 4 µM (≈ 1.74 µg/mL). Further, the MIC in the series on Mycolicibacterium aurum was 30 µM (≈ 13.1 µg/mL). Also, the IC50 with PC-3 was 4.7 µM; in the series on A549, 2.4 µM.

Turning to `O=C(O)c1ccc(O)c2nc3c4c(ccc3nc12)[C@@H]1Cc2nc3cccc(O)c3nc2[C@H](O4)[C@H]1O`, the Activity result in the series on Ambystoma mexicanum was “Non-Toxic”. Also, the MIC in the series on Salmonella enterica, in the series with Micrococcus luteus, in the series on Bacillus subtilis, against Escherichia coli, in the series with Saccharomyces cerevisiae and in the series on Staphylococcus aureus was more than 120 µM in each case. This compound also displayed an MIC against Mycolicibacterium aurum of more than 120 µM. The IC50 with PC-3 and in the series on A549 was more than 50 µM each time.

The values above are taken from ChEMBL document CHEMBL4392871, “Baraphenazines A-G, Divergent Fused Phenazine-Based Metabolites from a Himalayan Streptomyces” (J Nat Prod, 2019).
